Experimental data from patent US20060252798A1, “Metal ion chelators and therapeutic use thereof” (priority 2003, published 2006).

Columns and labels:
M109 cells = assay: Apoptosis assay by flow cytometry (Annexin V-FITC / PI), cultured M109 cells; assay type: cell-based, mouse
Experimental: Apoptotic cells were detected by a flow cytometer (FACSCalibur, Becton Dickinson, Calif., USA) using fluorescein isothiocyanate (FITC) labelled Annexin V binding to translocated plasma membrane phosphatidylserine (PS).^25 Propidium iodide (PI) was added to identify loss of cell membrane integrity, which is indicative of necrotic cells.
There was a dose-dependent increase in the percentage of apoptotic and dead cells after Dp44mT treatment (FIG. 13A). Exposure of cells to 1 μM Dp44mT caused a significant (p<0.05) increase of apoptotic and dead cells. This increase peaked at a Dp44mT concentration of 100 μM resulting in a population consisting of 40±7% apoptotic cells and 27±3% dead cells (FIG. 13A).

M109 lung carcinoma = assay: In situ TUNEL assay of tumour samples from treated mice; assay type: in vivo, mouse; details: 0.4 mg/kg, compared to vehicle-treated controls (FIG. 12B)
active caspase-3 = assay: Protein level of active caspase-3 in M109 cells (western blotting); assay type: cell-based, mouse; details: 1 μM
Experimental: (§1) FIG. 14. Effect of Dp44mT (1 μM) on the (A,B) protein levels of active caspase-3, -8 and -9, and (C,D) the activity of caspase-3, -8 and -9 in cultured M109 cells in the absence (C) and presence (D) of cell-permeable caspase inhibitors. (A) Caspase-3, -8, and -9 levels after Dp44mT treatment at indicated times as detected by western blotting (upper panel). The anti-β-actin antibody was used to ensure equal protein loading (lower panel). (B) Densitometric analysis of the expression of caspase-3, -8, and -9 as a function of time normalized to β-actin (C) Caspase activity induced by Dp44mT (1 μM) at 0-48 h was expressed as a percentage of the 0 h time value. (D) Cell-permeable inhibitors of caspase-3, -8 or -9 at 1 μM prevented activation of these enzymes when incubated with Dp44mT (1 μM) for 48 h. Results are mean±SEM of three separate experiments.
(§2) Rabbit anti-active caspase-3 antibody, rabbit anti-active caspase-8 antibody and Annexin V fluorescein isothiocyanate (FITC) were from BD PharMingen (San Diego, Calif., USA). Anti-h-cytc MoAb was from R&D Systems Minneapolis, Minn., USA). Rabbit anti-active caspase-9 antibody, mouse anti-Bcl-2 and mouse anti-Bax antibodies were obtained from Santa Cruz (Santa Cruz, Calif., USA). Mouse anti-mouse β-actin antibody, horseradish peroxidase-conjugated antirabbit, and anti-mouse IgG were from Sigma Chemical Co. (St. Louis, Mo., USA).
(§3) To determine the role of caspase activation in Dp44mT-induced apoptosis in M109 cells, protein levels of active caspase-3, -8 and -9 (FIG. 14A,B) and their enzymatic activity (FIG. 14C,D) were examined.

active caspase-8 = assay: Protein level of active caspase-8 in M109 cells (western blotting); assay type: cell-based, mouse; details: 1 μM
Experimental: as §1, §2, §3

caspase-9 = assay: Caspase-9 activity in M109 cells (BD Apolert Caspase Assay Plate); assay type: cell-based, mouse; details: 1 μM
Experimental: Cultured M109 cells were treated with or without Dp44mT (1 μM) for 0-48 h at 37° C. Cells were lysed^27 and caspase activities were determined using the BD Apolert™ Caspase Assay Plate (BD Biosciences, San Diego, Calif., USA). Cell-permeable pan-caspase-3, -8, and -9 inhibitors (BD Biosciences) were included as inhibitory controls.

[1] = tested on: holo-cytochrome c (h-cytc); assay: Release of holo-cytochrome c from mitochondria into cytosol of M109 cells; assay type: cell-based, mouse; details: 1 μM, 2 h exposure (FIG. 15A)
Experimental: Due to the importance of h-cytc release from the mitochondrion on apoptosis induction,^8 further studies investigated the effect of Dp44mT on this process (FIG. 15A). Preparation of cytosolic and mitochondrial fractions and western blotting were carried out using standard techniques.^27 There was very little h-cytc expression in the cytosolic fractions of control M109 cells (i.e., at 0 h), with the greatest amount of h-cytc being found in the mitochondrion at this time (FIG. 15A). […] The release of h-cytc into the cytosol plateaued after a 4 h incubation with Dp44mT and then decreased to that found in control cells after 24 and 48 h. This increase in cytosolic h-cytc correlated with the loss from the mitochondrion (FIG. 15A). The near complete disappearance of h-cytc from the cytosol at 24 and 48 h may be due to its release from cells or its degradation^28 (FIG. 15A).

Bcl-2 = assay: Mitochondrial Bcl-2 protein level in M109 cells; assay type: cell-based, mouse; details: 1 μM
Experimental: (§4) Considering the roles of Bcl-2 and Bax in the mitochondrial pathway of apoptosis and their role in h-cytc release, ^8,11,12 the effect of Dp44mT (1 μM) on the protein levels of these molecules was assessed (FIG. 15B).

Bax = Bax protein level in M109 cells; assay type: cell-based, mouse; details: 1 μM, 48 h
Experimental: as §4

GADD45 and WAF1 mRNA = assay: Northern blot of WAF1 and GADD45 mRNA expression in SK-N-MC cells; assay type: cell-based, human; details: DFO 100 μM, other chelators 25 μM, 20 h at 37° C. (FIG. 7)
Experimental: FIG. 7. […] Northern blotting was performed using standard procedures (see Example 6).
Northern blot analysis was performed by isolating total RNA using the Total RNA Isolation Reagent (Advanced Biotechnologies Ltd, Surrey, United Kingdom). The membranes were hybridised with probes specific for human WAF1, GADD45, and β-actin. The WAF1 probe consisted of a 1 kb fragment from pSXV (ATCC; Cat. No. 79928). The GADD45 probe consisted of a 760 bp fragment from human GADD45 cDNA cloned into pHu145B2 (kindly supplied by Dr. Albert Fornace, National Cancer Institute, NIH, Maryland). The β-actin probe consisted of a 1.4 kb fragment from human β-actin cDNA cloned into pBluescript SK− (ATCC; Cat. No. 37997).

CN(C)C(=S)NN=C(c1ccccn1)c1ccccn1 [Dp44mT, di-2-pyridylketone 4,4-dimethyl-3-thiosemicarbazone] showed an apoptotic cells (M109 cells; 1 μM, 12 h) of 12±2%, an apoptotic cells (M109 cells; 100 μM, 24 h) of 40±7% and a dead cells (M109 cells; 100 μM, 24 h) of 27±3%. For the same compound, the apoptotic cell numbers (M109 cells; 250 μM, 24 h) was 20±2%, the dead cell population (M109 cells; 250 μM, 24 h) was 42±6% and the “apoptotic cell death in tumour samples” value (M109 lung carcinoma) was “increased apoptotic cell death”. For the same compound, the caspase-3 protein level (active caspase-3; 2 h) was 168 % of the control, the caspase-3 protein level (active caspase-3; 6 h) was 400 % of the control and the caspase-3 protein level (active caspase-3; 12 h) was 380 % of the control. The caspase-3 protein level (active caspase-3; 24 h) was “about 4 fold that of control cells”, the caspase-3 protein level (active caspase-3; 48 h) was 5.5 fold that of control cells and the “caspase-8 protein level” value (active caspase-8; 2 h) was “not increased”. The caspase-8 protein level (active caspase-8; 6 h) was 150 % of the control, the caspase-8 protein level (active caspase-8; 12 h) was 400 % of the control and the caspase-8 protein level (active caspase-8; 24 h) was “about 4 fold that of control cells”. The caspase-8 protein level (active caspase-8; 48 h) was 3.4 fold that of control cells, the caspase-9 activity (caspase-9; 12 h) was 354 % of the control and the “caspase-9 activity (plateau)” value (caspase-9; after 24 h) was 400-600 % of the control. The “h-cytc release from the mitochondrion” value [1] was “h-cytc was found in the cytosolic fraction”, the Bcl-2 protein level (Bcl-2; 2 h) was 69 % of the 0 h time point and the Bcl-2 protein level (Bcl-2; 48 h) was 37 % of the 0 h time point. The Bax expression (Bax) was 500 % of that found at the 0 h time point.

CC(=O)N(O)CCCCCNC(=O)CCC(=O)N(O)CCCCCNC(=O)CCC(=O)N(O)CCCCCN [DFO, desferrioxamine] was tested, and the “GADD45 and WAF1 mRNA expression” value (GADD45 and WAF1 mRNA) was “up-regulation”.
